Counter-ions that a name gives are not always drawn.
Assays:
[1] = peak serum concentration of the drug; cited from earlier work
HepG2 cells = test: High-content imaging of HepG2 cells stained for nuclei, glutathione, ROS and mitochondria (FIG. 11); type: cell-based; details: 25 Cmax, 24 hrs
Experimental: For routine culture of HepG2 cells, EMEM medium containing the following supplements can be used: 10% fetal bovine serum, 1 mM sodium pyruvate, 1× non-essential amino acids, 100 units/ml penicillin and 100 μg/ml streptomycin (EMEM complete medium).
Cells can be harvested by trypsinization, diluted into EMEM complete medium and cell density was determined. Cells are diluted to 2.0×10^5 cells/ml in EMEM complete medium. 100 μl of the cell suspension are added per well of the 96-well microplate to achieve 20,000 cells/well.
The cells were then stained with specific fluorescent dyes to detect each cellular target. Cell images were then obtained using the ArrayScan VTi Reader manufactured by Cellomics Inc., a subsidiary of Thermo Fisher Scientific Inc. Representative samples 230 of the cell images obtained during the assay are shown in FIG. 11. […] The images of the cells for the different targets look different for the two drugs; Troglitazone reduces the number of cells and mitochondrial membrane potential but […] reduced glutathione levels in HepG2 cells.

[2] = tested on: Reactive oxygen species (ROS) levels in cells
Description: Once imaging has been performed, automated image processing algorithms as are known in the art can be used in the imaging system to determine the measurements in the cell images.
The target i being evaluated was the normalized ROS response.
where μ is the mean of the normalized non-hepatotoxic compound values and σ is the standard deviation of the normalized non-hepatotoxic compound values.
As noted above, for ROS, the upper threshold may be all that is needed. […] The difficulty in compound toxicity measurement because of non-unidirectional response and/or because of incorrect EC50/IC50 calculation from a dose-response curve are avoided by establishing toxicity thresholds based on the negative controls and by flagging a compound as toxic only if its response goes beyond the determined thresholds at any concentration.
For each target, the minimal coefficient K of the deviation value from the mean of the non-hepatotoxic compound data can be calculated to include all the non-hepatotoxic compounds values between μ+K×σ and μ−K×σ values. These values are set respectively as the upper and lower toxicity thresholds for the target. As noted above, for each target both or only one of the thresholds can be used.
(§1) The normalized values from the hepatotoxic compounds (or compounds of interest) are compared with the threshold value determined above. The compound toxicity is determined by verifying whether the normalized value of the compound is outside the threshold value(s). […] Cell loss was determined to be toxic if the normalized value was less than the lower threshold value. Reactive oxygen species level was determined to be toxic if the respective normalized value was greater than the upper threshold value.

rat primary hepatocytes = test: Multiparametric high-content hepatotoxicity prediction assay on rat primary hepatocytes (FIG. 9 decision table); details: 24 hours drug incubation, over concentration range, targets: cell number, DNA content, GSH, ROS, mitochondrial membrane potential
Description: After drug treatment, the hepatic cells are stained with specific fluorescent materials to detect different cellular targets or properties whose changes are associated with cell health, as is known in the art. For example, in the exemplary embodiments discussed herein, as well as in the test data shown, the following five cellular responses are simultaneously monitored: • 1. Cell number (i.e., cell loss, cell density) • 2. Nuclear DNA content • 3. Reduced glutathione (GSH) levels in cells • 4. Reactive oxygen species (ROS) levels in cells • 5. Mitochondrial membrane potential changes
Otherwise the cell contains a “−”.
This corresponds to the number of target cells corresponding to the compound that contain a “+”.
For maintenance of rat primary hepatocytes, Williams E medium can be used containing the following supplements: 15 mM HEPES, 1% ITS+, 4 mM Glutamax, 0.1 μM dexamethasone, 50 units/ml penicillin and 50 μg/ml streptomycin (Hepatocyte maintenance medium). […]
For each target, the minimal coefficient K of the deviation value from the mean of the non-hepatotoxic compound data can be calculated to include all the non-hepatotoxic compounds values between μ+K×σ and μ−K×σ values. […]
as §1
The images were analyzed, as discussed above, to produce the data shown on FIG. 9. […] After 24 hours of drug incubation, the hepatocytes were stained and imaged on a Thermo Scientific ToxInsight HCS reader. The data for each target were normalized and analyzed based on the threshold calculated from the non-hepatotoxic compounds in the manner discussed above. […]

Structure (SMILES)	1 CMax [1]	normalized ROS response relative to upper and lower toxicity thresholds [2]	further results
CN1CCC(=C2c3ccccc3C=Cc3ccccc32)CC1 [Cyproheptadine HCl]	30 µg/mL		
Cc1c(C)c2c(c(C)c1O)CCC(C)(COc1ccc(CC3SC(=O)NC3=O)cc1)O2 (stereo not drawn) [Troglitazone]	2.82 µg/mL		mitochondrial membrane potential (HepG2 cells): reduces; number of cells (HepG2 cells): reduces; reduced glutathione levels (HepG2 cells): increases
CCN(CC)CCNc1ccc(CO)c2sc3ccccc3c(=O)c12 [Hycanthone]		flagged as being toxic	
CC(=O)Oc1ccccc1C(=O)O [Aspirin]	0.995 µg/mL	between the upper and lower thresholds values	
COc1ccc2[nH]cc(CCNC(C)=O)c2c1 [Melatonin]	0.00557 µg/mL	between the upper and lower thresholds values	
CCCCC1C(=O)N(c2ccccc2)N(c2ccccc2)C1=O [Phenylbutazone]	150 µg/mL		
O=C1CN(/N=C/c2ccc(-c3ccc([N+](=O)[O-])cc3)o2)C(O)=N1 [Dantrolene]	1.24 µg/mL		
CN(CCOc1ccc(CC2SC(=O)NC2=O)cc1)c1ccccn1 (stereo not drawn) [Rosiglitazone]	0.373 µg/mL		
Cc1cccc(Nc2ccccc2C(=O)O)c1C [Mefenamic Acid]	6.5 µg/mL	flagged as being toxic	
CNCCC(Oc1ccc(C(F)(F)F)cc1)c1ccccc1 (stereo not drawn) [Fluoxetine]	0.015 µg/mL	between the upper and lower thresholds values	number of targets flagged as being toxic (of five monitored targets) (rat primary hepatocytes): none
Cc1ccc(C)c(OCCCC(C)(C)C(=O)O)c1 [Gemfibrozil]	46.4 µg/mL		
CCn1cc(C(=O)O)c(=O)c2ccc(C)nc21 [Nalidixic Acid]	30 µg/mL		
CO[C@@H]1[C@@H](OC(N)=O)[C@@H](O)[C@H](Oc2ccc3c(O)c(NC(=O)c4ccc(O)c(CC=C(C)C)c4)c(=O)oc3c2C)OC1(C)C [Novobiocin]	62.5 µg/mL	flagged as being toxic	number of targets flagged as being toxic (of five monitored targets) (rat primary hepatocytes): five
N#CC(C#N)=NNc1ccc(OC(F)(F)F)cc1 [FCCP]			number of targets flagged as being toxic (of five monitored targets) (rat primary hepatocytes): Four
CN(C)[C@@H]1C(O)=C(C(N)=O)C(=O)[C@@]2(O)C(O)=C3C(=O)c4c(O)cccc4[C@@](C)(O)[C@H]3C[C@@H]12 [Tetracycline]	9.317 µg/mL		
O=c1n(CCCN2CCN(c3cccc(Cl)c3)CC2)nc2ccccn12 [Trazodone HCl]	1.88 µg/mL		
Clc1ccccc1CN1CCc2sccc2C1 [Ticlopidine]	2.13 µg/mL		

Reference: patent publication US9201062B2, “Predicting toxicity of a compound over a range of concentrations” (CELLOMICS, INC., priority 2011, dated 2015)
